What is called melting point is the temperature of the solid-liquid transition.

The structures appear in SMILES notation. A value given as a limit tells only on which side of the number the result lay.

In one data set the test system is dogs. As to conditions: intravenal administration to dogs; cited from earlier work.
For the molecule `COc1ccc(C2(CCN(C)C)Cc3ccccc3C(=O)O2)cc1` (centres unmarked) [3-(2-dimethylamino-ethyl)-3,4-dihydro-3-(p-methoxy-phenyl)-isocoumarin], the anti-hypertensive activity result is on record as “anti-hypertensive activity”.

`CN(C)CCC1(c2ccccc2)Cc2ccccc2C(=O)O1` (centres unmarked) [3-(2-dimethylamino-ethyl)-3,4-dihydro-3-phenyl-isocoumarin]: the anti-hypertensive activity entry is given as “anti-hypertensive activity”. With `CN(C)CCC1(c2ccccc2)Cc2ccccc2CO1` (centres unmarked) [3-(2-dimethylamino-ethyl)-3-(phenyl)-isochroman], the anti-hypertensive activity result is “anti-hypertensive activity”.

System in the next data set: not given
Conditions: not given
Turning to `COc1cccc2c1CC(CCN(C)C)(c1ccccc1)OC2=O.Cl` (centres unmarked), the melting point is > 250 °C (dec.). Consider `CN1CCN(CCC2(c3ccc(Cl)cc3)Cc3ccccc3C(=O)O2)CC1.Cl` (centres unmarked), for which the melting point was > 250 °C (dec.). As to `Cl.O=C1OC(CCN2CCCC2)(c2ccc(Cl)cc2)Cc2ccccc21` (centres unmarked), the melting point was > 250 °C (dec.). The same measure, in the same setting: then `Cl.O=C1OC(CCN2CCCCC2)(c2ccc(Cl)cc2)Cc2ccccc21` (centres unmarked), with > 250 °C (dec.); and `COc1ccc(C2(CCN(C)C)Cc3ccccc3C(=O)O2)cc1.Cl` (centres unmarked), with > 250 °C (dec.); and `COc1cccc(C2(CCN(C)C)Cc3ccccc3C(=O)O2)c1.Cl` (centres unmarked), with > 250 °C (dec.). Still for that read-out and setting: then `COc1ccccc1C1(CCN(C)C)Cc2ccccc2C(=O)O1.Cl` (centres unmarked), with > 250 °C (dec.); and `CN(C)CCC1(c2cccc(F)c2)Cc2ccccc2C(=O)O1.Cl` (centres unmarked), with > 250 °C (dec.). On the same count and under the same terms, then `CN(C)CCC1(c2ccc(Oc3ccccc3)cc2)Cc2ccccc2C(=O)O1.Cl` (centres unmarked), with 245.2 to 246.3 °C (dec.); and `CN(C)CCC1(c2ccccc2Cl)Cc2ccccc2C(=O)O1.Cl` (centres unmarked), with > 250 °C (dec.); and `CN(C)CCC1(c2cccs2)Cc2ccccc2C(=O)O1.Cl` (centres unmarked), with > 250 °C (dec.). As to `CN(C)CCC1(c2ccccc2)Cc2ccccc2C(=O)O1.Cl` (centres unmarked), the melting point is > 250 °C (dec.). On the same count and under the same terms, to `Cc1cccc2c1CC(CCN(C)C)(c1ccccc1)OC2=O.Cl` (centres unmarked) belongs > 250 °C (dec.).

Take `Cc1ccc2c(c1)C(=O)OC(CCN(C)C)(c1ccccc1)C2.Cl` (centres unmarked): the melting point is > 250 °C (dec.). The same measure, in the same setting: then `CCN(CC)CCC1(c2ccc(Cl)cc2)Cc2ccccc2C(=O)O1.Cl` (centres unmarked), with > 250 °C (dec.); and `CC1c2ccccc2C(=O)OC1(CCN(C)C)c1ccc(Cl)cc1.Cl` (centres unmarked), with > 250 °C (dec.). The same measure, in the same setting: to `CN(C)CCC1(c2cccc(Cl)c2)Cc2ccccc2C(=O)O1.Cl` (centres unmarked) belongs > 250 °C (dec.); to `Cc1cccc2c1C(=O)OC(CCN(C)C)(c1ccc(Cl)cc1)C2.Cl` (centres unmarked), > 250 °C (dec.); to `CN(C)CCCC1(c2ccc(Cl)cc2)Cc2ccccc2C(=O)O1.Cl` (centres unmarked), > 250 °C (dec.).

A further data set concerns rats. As to conditions: oral administration to rats; cited from earlier work.
Take `CC(CN(C)C)C1(c2ccccc2)Cc2ccccc2C(=O)O1` (centres unmarked) [3-(2-dimethylamino-(1-methyl-ethyl))-3,4-dihydro-3-phenyl-isocoumarin]: the diuretic action result is reported as “diuretics”.

`COc1ccc(C2(CCN(C)C)Cc3ccccc3C(=O)O2)cc1` (centres unmarked) [3-(2-dimethylamino-ethyl)-3,4-dihydro-3-(p-methoxy-phenyl)-isocoumarin]: the diuretic action result was “diuretics”. In the case of `CN(C)CCC1(c2ccccc2)Cc2ccccc2C(=O)O1` (centres unmarked) [3-(2-dimethylamino-ethyl)-3,4-dihydro-3-phenyl-isocoumarin], the diuretic action entry is “diuretics”.

The subject of another data set is rats. Conditions: oral administration to rats; cited from earlier work. The source holds these as a separate data set.
As for `CC(CN(C)C)C1(c2ccccc2)Cc2ccccc2C(=O)O1` (centres unmarked) [3-(2-dimethylamino-(1-methyl-ethyl))-3,4-dihydro-3-phenyl-isocoumarin], the antihypertensive action entry was “ineffective”.

(Values after US20060058374A1, “Urotensin II receptor agents” (priority 2002, published 2006).)
